Test [1] concerns the target T1, SCD1 (Homo sapiens, UniProt O00767).
T1 construct: host or cells: S. cerevisiae ole1Δ strain (W303 pdr1Δ pdr3Δ background), plasmid pRS316 with TDH3 promoter and CYC1 terminator
T1 sequence (O00767 1-359): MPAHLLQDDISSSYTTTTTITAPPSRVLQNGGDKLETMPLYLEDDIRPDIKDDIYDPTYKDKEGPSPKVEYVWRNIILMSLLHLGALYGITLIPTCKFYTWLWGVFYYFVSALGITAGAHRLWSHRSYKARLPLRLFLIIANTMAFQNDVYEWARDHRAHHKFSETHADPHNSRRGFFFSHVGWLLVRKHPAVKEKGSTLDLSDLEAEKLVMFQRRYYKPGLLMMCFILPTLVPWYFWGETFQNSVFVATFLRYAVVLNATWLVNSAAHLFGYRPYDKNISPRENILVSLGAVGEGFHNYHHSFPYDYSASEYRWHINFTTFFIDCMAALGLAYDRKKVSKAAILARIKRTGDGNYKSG
Briefly: Growth inhibition of humanized yeast strain expressing SCD1 as sole desaturase. Format: cell-based. Conditions: humanized yeast strain expressing SCD1. The essentials:
(§1)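 Yeast ole1Δ strain (W303 pdr1Δ pdr3Δ background) carrying plasmid-borne Ole1, SCD1 or SCD5 as sole desaturase was grown in uracil-lacking media, pre-cultured in raffinose for 6 h, then seeded in galactose medium with compound in DMSO. Growth was read as OD600 after 30° C. incubation: 24 h for Ole1, 40 h for SCD1/SCD5.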

Test [2] addresses T2, SCD5 (Homo sapiens, UniProt Q86SK9).
T2 construct: host or cells: S. cerevisiae ole1Δ strain (W303 pdr1Δ pdr3Δ background), plasmid pRS316 with TDH3 promoter and CYC1 terminator
T2 sequence (Q86SK9 1-330): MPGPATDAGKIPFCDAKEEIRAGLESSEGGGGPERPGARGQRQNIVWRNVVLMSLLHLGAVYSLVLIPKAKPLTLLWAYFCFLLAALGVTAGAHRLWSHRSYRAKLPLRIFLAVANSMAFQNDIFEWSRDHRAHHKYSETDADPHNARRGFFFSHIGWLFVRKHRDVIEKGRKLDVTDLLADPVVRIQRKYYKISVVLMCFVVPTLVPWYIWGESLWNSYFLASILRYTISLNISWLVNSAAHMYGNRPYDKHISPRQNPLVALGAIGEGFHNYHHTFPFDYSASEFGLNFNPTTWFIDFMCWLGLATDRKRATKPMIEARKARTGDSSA
The test is described as follows: Growth inhibition of humanized yeast strain expressing SCD5 as sole desaturase. To be noted: humanized yeast strain expressing SCD5. Format: cell-based. The essentials:
as §1

Test [3] concerns yeast strains expressing the human α-synuclein. The test is described as follows: Yeast α-synuclein toxicity rescue assay (OD600 growth). To be noted: 40 h; for EC50: read-out: α-Syn EC50; for Emax: read-out: α-Syn Emax.
Test [4] deals with T3, Ole1 (Saccharomyces cerevisiae, UniProt P21147).
T3 construct: expressed in transfected cells; host or cells: S. cerevisiae ole1Δ strain (W303 pdr1Δ pdr3Δ background), plasmid pRS316 with TDH3 promoter and CYC1 terminator
T3 sequence (P21147 1-510): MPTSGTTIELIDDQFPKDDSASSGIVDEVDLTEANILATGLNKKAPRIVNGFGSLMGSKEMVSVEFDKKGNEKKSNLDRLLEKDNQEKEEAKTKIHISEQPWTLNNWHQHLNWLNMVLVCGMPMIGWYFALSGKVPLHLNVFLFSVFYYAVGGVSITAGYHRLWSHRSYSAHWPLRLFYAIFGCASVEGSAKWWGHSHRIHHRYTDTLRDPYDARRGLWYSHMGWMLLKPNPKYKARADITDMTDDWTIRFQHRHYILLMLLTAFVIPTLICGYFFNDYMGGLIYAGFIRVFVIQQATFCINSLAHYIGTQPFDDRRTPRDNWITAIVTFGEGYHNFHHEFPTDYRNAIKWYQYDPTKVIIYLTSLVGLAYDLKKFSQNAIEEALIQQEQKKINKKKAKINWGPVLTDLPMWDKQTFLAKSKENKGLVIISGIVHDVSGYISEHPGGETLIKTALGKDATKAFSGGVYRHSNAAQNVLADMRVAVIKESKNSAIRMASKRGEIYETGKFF
The test is described as follows: Growth inhibition of yeast strain expressing Ole1 as sole desaturase. To be noted: yeast strain expressing Ole1 as sole desaturase. The format is cell-based. In a few lines:
as §1

One may read the IC50 as the point on the concentration scale where inhibition reaches its midpoint. For orientation: EC50 means the concentration giving half of the maximal effect.

The structures appear in SMILES notation. “And” between values parts separate entries of the source, which are not always exact repeats. Equal entries are not always repeated. Bounds are passed on as bounds.

In the case of `COc1ccc(CN2CC(C(=O)N3CCC(c4nc(-c5ccc6c(C)nn(C)c6c5)no4)CC3)CC2=O)c(OC)c1` (stereo not shown) [Compound 124], in test [1], the IC50 is over 45 µM and the “SCD1 % Max Inhibition” value came out at 88.87%. Moreover, in test [2], the IC50 was over 45 µM and the “SCD5 % Max Inhibition” value amounted to 96.23%. In addition, in test [3], the EC50 turned out to be 17.7 µM and the Emax was determined as 395%. Further, in test [4], the IC50 is over 45 µM and the “OLE1 % Max Inhibition” value worked out at 4.55%.
Regarding `Cc1nn(C)c2cc(-c3noc(C4CCN(C(=O)CNC(=O)c5ccccn5)CC4)n3)ccc12` [Compound 153], in test [1], the IC50 is over 45 µM and the “SCD1 % Max Inhibition” value was 75.76%. For the same molecule, in test [2], the IC50 was over 45 µM and the “SCD5 % Max Inhibition” value is given as 87.51%. For the same molecule, in test [3], the EC50 was 0.02 µM and the Emax worked out at 271%. Further, in test [4], the IC50 is over 45 µM and the “OLE1 % Max Inhibition” value came out at 2.75%.
In the case of `Cc1nn(C)c2cc(-c3noc(C4CCN(C(=O)CNC(=O)c5ccccc5)CC4)n3)cnc12` [Compound 137], in test [1], the concentration for half-maximal inhibition (IC50) was over 45 µM and the “SCD1 % Max Inhibition” value was found to be 90.19%. In test [2], the IC50 was determined as 22.3 µM and the “SCD5 % Max Inhibition” value is on record as 50.61%. In test [3], the EC50 is 1.05 µM and the Emax was determined as 376%. In addition, in test [4], the IC50 was over 45 µM and the “OLE1 % Max Inhibition” value is reported as 96.83%.
On to `Cc1nn(C)c2nc(-c3noc(C4CCN(C(=O)CN5Cc6ccccc6C5=O)CC4)n3)ccc12` [Compound 146], for which, in test [1], the IC50 is 37.8 µM and the “SCD1 % Max Inhibition” value stood at 60.81%. Also, in test [2], the IC50 is over 45 µM and the “SCD5 % Max Inhibition” value was found to be 25.62%. Also, in test [3], the EC50 came to 1.94 µM and the Emax was found to be 516%. In test [4], the IC50 was over 45 µM and the “OLE1 % Max Inhibition” value was determined as 3.28%.
`CCOc1ccc(-c2noc(C3CCN(C(=O)C(C)N4Cc5ccccc5C4=O)CC3)n2)cc1OC` (stereo not shown) [Compound 140]: in test [1], the IC50 was over 45 µM; the “SCD1 % Max Inhibition” value is 77.37% and 75.00%. In test [2], the “SCD5 % Max Inhibition” value was 3.46% and 10.16%. In test [3], the EC50 stood at 0.049 µM and the Emax amounted to 322%. In test [4], the IC50 was over 45 µM; the “OLE1 % Max Inhibition” value was 3.96% and 4.98%.
Take `CCOc1ccc(-c2noc(N3CCC(C(=O)N4CCN(C)C(c5ccccc5)C4)CC3)n2)cc1OC` (stereo not shown) [Compound 113]: in test [1], the midpoint of inhibition, the IC50, lay at 40.7 µM and the “SCD1 % Max Inhibition” value is 55.33%. In addition, in test [2], the IC50 was over 45 µM and the “SCD5 % Max Inhibition” value is on record as 27.28%. Also, in test [3], the EC50 was 15.6 µM and the Emax turned out to be 55%. For the same molecule, in test [4], the IC50 was over 45 µM and the “OLE1 % Max Inhibition” value was 5.55%.
As for `CCOc1ccc(-c2noc(N3CCC(C(=O)N4CCOC(c5ccccc5)C4)CC3)n2)cc1OC` (stereo not shown) [Compound 112], in test [1], the IC50 is over 45 µM and the “SCD1 % Max Inhibition” value was determined as 66.76%. In test [2], the IC50 was over 45 µM and the “SCD5 % Max Inhibition” value came to 21.21%. In test [3], the concentration for a half-maximal effect (EC50) is 0.32 µM and the Emax is 258%. Moreover, in test [4], the IC50 is over 45 µM and the “OLE1 % Max Inhibition” value amounted to 3.16%.
On to `Cc1nn(C)c2cc(-c3noc(C4CCN(C(=O)C5CC(=O)N(c6ccccc6)C5)CC4)n3)cnc12` (stereo not shown) [Compound 138], for which, in test [1], half-maximal inhibition (IC50) required 37.3 µM and the “SCD1 % Max Inhibition” value is given as 54.49%. For the same molecule, in test [2], the IC50 is over 45 µM and the “SCD5 % Max Inhibition” value was 4.57%. In test [3], the half-maximal effective concentration (EC50) was found to be 1.28 µM and the Emax came to 353%. Also, in test [4], the IC50 is over 45 µM and the “OLE1 % Max Inhibition” value is on record as 3.94%.
`Cc1nn(C)c2cc(-c3noc(N4CCN(C(=O)c5cc(-c6ccccc6)no5)CC4)n3)ccc12` [Compound 103]: in test [1], the half-maximal inhibitory concentration (IC50) is over 45 µM and the “SCD1 % Max Inhibition” value is 93.33%. Further, in test [2], the IC50 was over 45 µM and the “SCD5 % Max Inhibition” value is on record as 68.60%. Further, in test [3], the EC50 turned out to be 2.02 µM and the Emax was found to be 75%. Further, in test [4], the IC50 was over 45 µM and the “OLE1 % Max Inhibition” value was 5.27%.
Regarding `Cc1nn(C)c2cc(-c3noc(C4CCN(C(=O)C(C)N5Cc6ccccc6C5=O)CC4)n3)ccc12` (stereo not shown) [Compound 141], in test [1], the half-inhibitory concentration (IC50) was over 45 µM and the “SCD1 % Max Inhibition” value is 86.53%. For the same molecule, in test [2], the IC50 was over 45 µM and the “SCD5 % Max Inhibition” value is on record as 78.91%. For the same molecule, in test [3], the EC50 came to 0.019 µM and the Emax was 259%. Moreover, in test [4], the IC50 was over 45 µM and the “OLE1 % Max Inhibition” value came out at 1.77%.
`COc1ccccc1C(=O)NCC(=O)N1CCC(c2nc(-c3ccc4c(C)nn(C)c4c3)no2)CC1` [Compound 152]: in test [1], the IC50 was over 45 µM and the “SCD1 % Max Inhibition” value came to 83.39%. Besides, in test [2], the IC50 is over 45 µM and the “SCD5 % Max Inhibition” value is 60.91%. For the same molecule, in test [3], the EC50 was determined as 0.134 µM and the Emax turned out to be 474%. Besides, in test [4], the IC50 was over 45 µM and the “OLE1 % Max Inhibition” value came out at 2.37%.
As to `Cn1c(=O)n(C)c2cc(-c3noc(C4CCN(C(=O)C5CC(=O)N(c6ccccc6)C5)CC4)n3)ccc21` (stereo not shown) [Compound 123], in test [1], the IC50 is over 45 µM and the “SCD1 % Max Inhibition” value was found to be 73.59%. Also, in test [2], the IC50 was over 45 µM and the “SCD5 % Max Inhibition” value worked out at 9.69%. For the same molecule, in test [3], the EC50 stood at 0.069 µM and the Emax was found to be 343%. Besides, in test [4], the IC50 was over 45 µM and the “OLE1 % Max Inhibition” value is 3.12%.
For `Cc1nnc(C)c2cc(-c3noc(C4CCN(C(=O)CNC(=O)c5ccccc5)CC4)n3)ccc12` [Compound 105], in test [1], the IC50 was over 45 µM and the “SCD1 % Max Inhibition” value came to 41.38%. In test [2], the IC50 was over 45 µM and the “SCD5 % Max Inhibition” value amounted to 13.93%. Further, in test [3], the EC50 is 3.18 µM and the Emax was 391%. Further, in test [4], the half-inhibitory concentration (IC50) is over 45 µM and the “OLE1 % Max Inhibition” value amounted to 34.19%.
In the case of `Cc1ccc(-c2nc(C3CCN(C(=O)[C@@H]4CC(=O)N(c5ccc(C)c(C)c5)C4)CC3)no2)cc1` [compound 72], the results for the IC50 in test [1], in test [2] and in test [4] were 27.3 µM, 33 µM and over 45 µM, respectively. Further, the EC50 in test [3] is 12.7 µM. Moreover, the Emax in test [3] was found to be 35%.
`Cc1nn(C)c2ccc(-c3noc(C4CCN(C(=O)N5CCCCC5)CC4)n3)cc12` [Compound 117]: in test [1], the IC50 is over 45 µM and the “SCD1 % Max Inhibition” value was determined as 95.94%. Also, in test [2], the midpoint of inhibition, the IC50, lay at 36.1 µM and the “SCD5 % Max Inhibition” value is 54.63%. For the same molecule, in test [3], the EC50 was determined as 7.5 µM and the Emax is 124%. In addition, in test [4], the IC50 was over 45 µM and the “OLE1 % Max Inhibition” value stood at 92.97%.
In the case of `CCN1C(=O)COc2cc(-c3noc(C4CCN(C(=O)CNC(=O)c5ccccc5)CC4)n3)ccc21` [Compound 111], in test [1], the IC50 is over 45 µM and the “SCD1 % Max Inhibition” value turned out to be 76.39%. For the same molecule, in test [2], the IC50 was over 45 µM and the “SCD5 % Max Inhibition” value is 32.73%. Further, in test [3], the EC50 was 0.339 µM and the Emax was determined as 289%. Besides, in test [4], the IC50 is over 45 µM and the “OLE1 % Max Inhibition” value was 38.26%.
